# Test results as given in US20080221205A1, “FURAN DERIVATIVES FOR PREVENTING AND CURING OSTEOPOROSIS AND PHARMACEUTICAL COMPOSITIONS CONTAINING THE SAME” (priority 2002, published 2008).
# Entries after “also recorded” stand apart in the source; their conditions may differ.
# Assays:
# [1] = tested on: MG-63 osteoblasts; experiment: Proliferation of MG-63 osteoblasts (3H-thymidine incorporation); type: cell-based, human; conditions: concentration not given
# Source text: In the following tests, three kinds of cell lines were used. The human osteosarcoma cell lines, MG-63 (ATCC No. CRL-1427) and HOS (ATCC No. CRL-1543), and mouse muscle C2C12 muscle cells (ATCC No. CRL-1772) were purchased from ATCC (American Type Culture Collection, Rockville, USA), and cultured in Dulbecco's modified Eagle's medium (DMEM) supplemented with 10% fetal bovine serum (FBS).
# In order to indirectly evaluate cytotoxicity of the Compound 1 and investigate effect of the Compound 1 naturally extracted on obsteoblast proliferation, proliferation of MG-63 osteoblasts was investigated by measuring the amount of ^3H-thymidine incorporated into cellular DNA upon DNA replication. The cells were aliquotted onto 24-well plates at a density of 2×10^4 cells per well. The next day, after exchanging culture medium to medium containing 1% FBS, the cells were treated with the compound 1 serially diluted at various concentrations and further cultured for 48 hrs. Four hours before finishing the culture of 48 hrs, ^3H-thymidine was added to the medium in an amount of 3 μCi per well. The cells were washed with phosphate buffer, and treated with 5% trichloroacetic acid (TCA) pre-cooled on ice. Each of the separated TCA-insoluble fractions was dissolved in 0.1 M NaOH. With a portion of each fraction, ^3H-thymidine uptake by the cells was measured using a liquid scintillation counter.
# [2] = tested on: ovariectomized white mice; experiment: Therapeutic effect on osteoporosis: tibia histology, oral administration from four weeks after ovariectomy; type: in vivo; conditions: four weeks to develop osteoporosis, then oral 220 μl/day for four weeks, versus control
# Method: (§1) In order to evaluate effects of the compound of the present invention on treatment and prevention of osteoporosis, female white mice with osteoporosis induced by ovariectomy were used as a disease model. After ovariectomy, mice were administered with the compound of the present invention. Tibias were dissected from the mice, and observed histologically.
# (§2) After anesthetizing female white mice with 100 mg/kg of Ketamine (Ketara) and 0.15 ml/kg of 2% Xylazine (Rompun), the lumbar dorsum is shaved bilaterally and the exposed skin was prepared for aseptic surgery by a 10% povidone-iodine scrub followed by a 70% alcohol wipe.
# A 1-cm incision was made in the central region of the abdomen, and the ovary was identified along with the uterus with caution not to damage the main organs such as the liver and diaphragm. After ligating the uterus with a thread for suturing, the exposed ovary was severed toward both sides and removed. Thereafter, each organ was relocated to its original position, and the incision was closed with a thread for suturing in an interrupted pattern. After ovariectomy, the mice were injected with 50 mg/kg of cefazolin antibiotic for prevention of infection with pathogens.
# In order to evaluate therapeutic effect of the Compound 1 on osteoporosis, after ovariectomy, the mice were fed with solid feedstuff for four weeks. […]
# [3] = tested on: ovariectomized white mice; experiment: Preventive effect 1 on osteoporosis: tibia histology, oral administration after ovariectomy; type: in vivo; conditions: 10 mg/day, four weeks from ovariectomy, versus untreated control
# Method: as §1, §2
# A 1-cm incision was made in the central region of the abdomen, and the ovary was identified along with the uterus with caution not to damage the main organs such as the liver and diaphragm. After ligating the uterus with a thread for suturing, the exposed ovary was severed toward both sides and removed. Thereafter, each organ was relocated to its original position, and the incision was closed with a thread for suturing in an interrupted pattern. […]
# The daily dosage of the Compound 1 per female white mouse was determined based on 250 g body weight. […] With caution not to exchange the water bottles between the groups, everyday, the number of mice was recorded, and the mixture was prepared based on the number of mice. […]
smiles,measurement,setting,value
"O=Cc1ccc(CO)o1 [Compound 1, 5-hydroxymethylfuran-2-carboxyaldehyde]",Proliferation rate of osteoblasts compared to control,[1],over 105%
same,Proliferation rate of osteoblasts compared to control,[1]; listed as compound prepared in Example 1,≥ 105%
same,"Trabecular bone density of tibia, light microscopy",[2],just a slight decrease in trabecular bone density; also recorded: no trabecular bone loss
same,"Trabecular and cortical bone of tibia, light microscopy",[3],trabecular bone loss was not observed; also recorded: marked increase in the cortical and trabecualr bone; also recorded: no trabecular bone loss
